Laboratory results from patent US20250011484A1, “METHODS FOR PREPARING METALLOCENE COMPOUNDS” (Chevron Phillips Chemical Company LP, priority 2023, published 2025).

Experiments:
[1] = Metallocene-catalyzed oligomerization of 1-decene; settings: 1-decene 675 g, 110° C., 1 hour, 5 mg metallocene, CTSO, TIBA, hydrogen
Method: Metallocene-catalyzed oligomerizations were performed using MET-A and MET-D as follows. Generally, 1-decene was oligomerized to an oligomer product of dimers, trimers, and tetramers in the presence of MET-A or MET-D, as noted in Table II below. For Examples 8-9, a 1-gallon batch reactor was charged with 675 g of 1-decene. A syringe was charged with CTSO (0.750 g), TIBA (1.3 mL of a 1.0 M hexane solution), and metallocene (5 mg). The chemically treated solid oxide (CTSO) was a fluorided silica-coated alumina (60:40 alumina:silica by weight) containing 4 wt. % F and having a d50 average particle size of 35 microns, a BET surface area of 450 m^2/g, and a pore volume of 1.1 mL/g. The catalyst mixture was shaken to mix and was then charged to the reactor under a nitrogen purge. The reactor was heated to 110° C. while stirring at 600-900 rpm. […]
The reaction mixture was then filtered and analyzed by gas chromatography to determine the yield of oligomer product formed in the reaction mixture, and to determine the relative amount of certain oligomers within the oligomer product (e.g., the trimer:tetramer weight ratio). […]
The distribution of olefin end groups was determined using ^1H NMR on a Bruker 300 MHz NMR. Spectra were recorded in CDCl3 and are reported relative to SiMe4 as determined by reference to the residual ^1H solvent peak. […]

[2] = Ethylene/1-hexene polymerization with metallocene catalyst compositions
Method: Polymerization experiments employing catalyst compositions comprising MET-A, MET-B, MET-C, MET-D, MET-E, and MET-F were conducted as follows. Unless otherwise indicated, the polymerization experiments used in the following examples were conducted for […] in a one-gallon (3.8 L) stainless-steel autoclave reactor containing isobutane as diluent. A syringe was charged with 250 mg solid activator-support, 2 mL hexane, 0.5 mL of 1M TIBA (in hexane) and 2.0 mg metallocene (MET-A, MET-B, MET-C, MET-D, MET-E, or MET-F, as noted in Tables III and IV) in that order. The slurry was charged to the reactor under an isobutane purge. The reactor was sealed, charged with 2 L of isobutane, and heated to 80° C. Ethylene was charged to the reactor and fed on demand to maintain the target pressure of 320 psig (2.2 MPa). The reactor was maintained at the target temperature throughout the experiment by an automated heating-cooling system. After venting of the reactor, purging, and cooling, the resulting polymer product was dried under reduced pressure. For Examples 40-41, the polymerization temperature was 90° C., and ethylene pressure was maintained at 390 psig ethylene, with a 1-hexene feed ratio of 20 wt. % vs. ethylene.

[3] = Solubility of metallocenes in 1-decene; type: physicochemical; settings: ambient temperature (21° C.), visual inspection for solids or haze
Method: Additional portions of the desired metallocenes were then added in increments of 3-4 mg and the mixture was allowed to stir for 30 minutes after each addition at ambient temperature (21° C.). The resulting mixtures were visually inspected for solids or significant haze. Metallocenes were considered soluble if significant haze or solids were not observed.

Row | SMILES | Activity [1] | Support Activity ([2]; 1-hexene 7.5 g, 80° C., 320 psig, 30 min, isobutane, TIBA) | Support Activity ([2]; 1-hexene 12 g, 80° C., 320 psig, 30 min, isobutane, TIBA) | Support Activity ([2]; 1-hexene 17.5 g, 80° C., 320 psig, 30 min, isobutane, TIBA) | Support Activity ([2]; 1-hexene 30 g, 80° C., 320 psig, 30 min, isobutane, TIBA) | Support Activity ([2]; Table IV, 1-hexene 49 g, 90° C., 390 psig ethylene, 1-hexene feed ratio 20 wt. %) [g/g/h] | Solubility [3] [wt. %] | Support Activity ([2]; Table IV, 1-hexene 51 g, 90° C., 390 psig ethylene, 1-hexene feed ratio 20 wt. %) [g/g/h]
1 | Fc1c(F)c(F)c(C[c-]2ccc3ccccc32)c(F)c1F.[Cl-].[Cl-].[Zr+4].c1cc[cH-]c1 (stereo not drawn) [MET-A] | 75,060 g/(g*h) | 1,920 g/(g*h) | 1,776 g/(g*h) | 1,872 g/(g*h) | 2,144 g/(g*h) | 2937 | <0.1 | –
2 | CCCC[c-]1cccc1.Fc1c(F)c(F)c(C[c-]2ccc3ccccc32)c(F)c1F.[Cl-].[Cl-].[Zr+4] (stereo not drawn) [MET-G] | – | – | – | – | – | – | 0.4 | 1392
